Assay results taken from patent US7795244B2, “Penem prodrugs” (priority 2006, dated 2010).
≈ marks a conversion by molar mass, not a printed value. Where “and” joins values, the source holds several entries; their conditions need not be identical. Equal values may be shown once.

How the values were obtained:
Neisseria meningitides = assay: MIC90 in vitro activity of sulopenem; format: cell-based
[1] = tested on: Haemophilus influenzae β-lactamase+; assay: MIC90 in vitro activity of sulopenem; format: cell-based
[2] = tested on: Viridans Streptococcus group; assay: MIC90 in vitro activity of sulopenem; format: cell-based
[3] = tested on: Corynebacterium spp (not C. jeikeium); assay: MIC90 in vitro activity of sulopenem; format: cell-based
[4] = in vivo, po; cited from earlier work
[5] = tested on: Streptococcus bovis (Group D); assay: MIC90 in vitro activity of sulopenem; format: cell-based; conditions: Streptococcus equinus
[6] = tested on: Klebsiella pneumoniae ESBL+; assay: MIC90 in vitro activity of sulopenem; format: cell-based
Becteroides fragilis = assay: MIC90 in vitro activity of sulopenem; format: cell-based
Escherichia coli = assay: MIC90 in vitro activity of sulopenem; format: cell-based
Alloiococcus otitidis = assay: MIC90 in vitro activity of sulopenem; format: cell-based; conditions: Alloiococcus otitis
[7] = tested on: Haemophilus influenzae β-lactamase−; assay: MIC90 in vitro activity of sulopenem; format: cell-based
Legionella pneumophila = assay: microbe, parasite or virus in culture; format: cell-based
[8] = tested on: Streptococcus pneumoniae penicillin-intermediate; assay: MIC90 in vitro activity of sulopenem; format: cell-based
[9] = tested on: Staphylococcus saprophyticus; assay: MIC90 in vitro activity of sulopenem; format: cell-based
[10] = tested on: Moraxella catarrhelis β-lactamase+; assay: MIC90 in vitro activity of sulopenem; format: cell-based
Clostridium perfringens = assay: microbe, parasite or virus in culture; format: cell-based
[11] = tested on: Streptococcus pyogenes (Group A); assay: MIC90 in vitro activity of sulopenem; format: cell-based
Proteus mirabilis = assay: MIC90 in vitro activity of sulopenem; format: cell-based
Morganella morganii = assay: MIC90 in vitro activity of sulopenem; format: cell-based
Citrobacter freundii = assay: MIC90 in vitro activity of sulopenem; format: cell-based
[12] = tested on: Streptococcus pneumoniae penicillin-resistant; assay: MIC90 in vitro activity of sulopenem; format: cell-based
Enterobacter cloacae = assay: MIC90 in vitro activity of sulopenem; format: cell-based
Citrobacter diversus = assay: MIC90 in vitro activity of sulopenem; format: cell-based; conditions: Citrobacter koseri
[13] = tested on: Moraxella catarrhalis β-lactamase−; assay: MIC90 in vitro activity of sulopenem; format: cell-based
[14] = tested on: Streptococcus agalactiae (Group B); assay: MIC90 in vitro activity of sulopenem; format: cell-based
Protocol: (§1) The in vitro activity of sulopenem (the parent acid (5R,6S)-6-[(1R)-1-hydroxyethyl]-7-oxo-3-[[(1R3S)-tetrahydro-1-oxido-3thienyl]thio]4-thia-1-azabicyclo[3.2.0]hept-2-ene-2-carboxylic acid) was evaluated against pathogens involved in community and hospital infections, as summarized in Table 1. .

Prevotella spp = assay: MIC90 in vitro activity of sulopenem; format: cell-based
Protocol: as §1

Listeria monocytogenes = assay: MIC90 in vitro activity of sulopenem; format: cell-based
Protocol: as §1

Klebsiella oxytoca = assay: MIC90 in vitro activity of sulopenem; format: cell-based
Protocol: as §1

[15] = tested on: Staphylococcus aureus oxacillin-S; assay: MIC90 in vitro activity of sulopenem; format: cell-based
Protocol: as §1

Klebsiella pneumoniae = assay: MIC90 in vitro activity of sulopenem; format: cell-based
Protocol: as §1

Salmonella/Shigella = assay: MIC90 in vitro activity of sulopenem; format: cell-based
Protocol: as §1

Enterobacter aerogenes = assay: MIC90 in vitro activity of sulopenem; format: cell-based; conditions: Klebsiella aerogenes
[16] = tested on: Streptococcus pneumoniae penicillin-susceptible; assay: MIC90 in vitro activity of sulopenem; format: cell-based
[17] = tested on: Streptococcus pneumoniae levofloxacin-resistant; assay: MIC90 in vitro activity of sulopenem; format: cell-based
K. pneumoniae 6485 = assay: Murine acute systemic infection model; conditions: Murine acute systemic infection vs. K. pneumoniae 6485; oral BID; survival day four post-infection; repeat experiments
[18] = Stability in human intestinal juice (HIJ); conditions: pooled human intestinal juice (4 subjects), buffered, pH 7.4
S. pneumoniae 1095 [19] = assay: Murine respiratory tract infection model; conditions: Murine respiratory tract infection vs. S. pneumoniae 1095; oral BID for two days from 18 h post-infection; survival day ten; repeat experiments
S. pneumoniae 1095 [20] = assay: Murine acute systemic infection model; conditions: Murine acute systemic infection vs. S. pneumoniae 1095; oral BID; survival day four post-infection; repeat experiments
[21] = Liver S9 conversion efficiency; format: in vitro ADME, human; conditions: liver S9 experiments
[22] = tested on: porcine pancrelipase (PPE); assay: Stability in the presence of porcine pancrelipase (PPE); format: in vitro ADME
[23] = as above; format: in vitro ADME; conditions: pig, porcine pancrelipase (ku-zyme HP) in phosphate buffer, 50 μM substrate, pH 7.4, 37° C.
Equilibrium solubility = format: physicochemical; conditions: aqueous buffer, thermodynamic from solid, 25 mM phosphate buffer (pH 5), ambient temperature / 25° C.
Protocol: Vials containing excess prodrug in phosphate buffer were rotated for up to 48 hours. After the equilibrium period, samples were pulled, filtered through 0.45 μm Gelman Acrodisc Nylon syringe filter and analyzed for drug concentration using HPLC. The HPLC conditions were: Column. C18, SymmetryShield RP, Waters, 4.6×150 mm, 3.5 micron; Mobile phase A: Acetonitrile; Mobile phase B: 0.1% TFA in water; Flow rate, 1 mL/min; Run Time: 30 min Inj. vol. 20 μL; Detection: 210 nm; Dissolving solvent: Acetonitrile/water (50:50 v:v).

H. influenzae BLNAR = assay: Gerbil otitis media model; conditions: Gerbil otitis media vs. H. influenzae BLNAR, oral TID for two days from 18 h post-infection, bacterial levels in middle ear fluid day four, repeat experiments

For `C[C@@H](O)[C@H]1C(=O)N2C(C(=O)O)=C(S[C@H]3CC[S@@+]([O-])C3)S[C@H]12` [Sulopenem, (5R,6S)-6-[(1R)-1-hydroxyethyl]-7-oxo-3-[[(1R,3S)-tetrahydro-1-oxido-3-thienyl]thio]-4-thia-1-azabicyclo[3,2.0]hept-2-ene-2-carboxylic acid], the MIC90 (Neisseria meningitides) was 0.06 µg/mL (≈ 0.172 µM), the MIC90 [1] was 0.5 µg/mL (≈ 1.43 µM) and the MIC90 [2] was 0.25 µg/mL (≈ 0.715 µM). The MIC90 [3] was 2 µg/mL (≈ 5.72 µM), the “oral bioavailability (in words)” value [4] was “not appreciably orally bioavailable” and the MIC90 [5] was 0.06 µg/mL (≈ 0.172 µM). For the same compound, the MIC90 [6] was 0.25 µg/mL (≈ 0.715 µM), the MIC90 (Becteroides fragilis) was 0.5 µg/mL (≈ 1.43 µM) and the MIC90 (Escherichia coli) was 0.06 µg/mL (≈ 0.172 µM). For the same compound, the MIC90 (Alloiococcus otitidis) was 1 µg/mL (≈ 2.86 µM), the MIC90 [7] was 0.25 µg/mL (≈ 0.715 µM) and the MIC90 (Legionella pneumophila) was 0.06 µg/mL (≈ 0.172 µM). It also gave an MIC90 [8] of 0.25 µg/mL (≈ 0.715 µM), an MIC90 [9] of 0.5 µg/mL (≈ 1.43 µM) and an MIC90 [10] of 0.125 µg/mL (≈ 0.358 µM). The MIC90 (Clostridium perfringens) was 0.06 µg/mL (≈ 0.172 µM), the MIC90 [11] was 0.03 µg/mL (≈ 0.0858 µM) and the MIC90 (Proteus mirabilis) was 0.5 µg/mL (≈ 1.43 µM). For the same compound, the MIC90 (Morganella morganii) was 2 µg/mL (≈ 5.72 µM), the MIC90 (Citrobacter freundii) was 0.25 µg/mL (≈ 0.715 µM) and the MIC90 [12] was 1 µg/mL (≈ 2.86 µM). It also gave an MIC90 (Enterobacter cloacae) of 1 µg/mL (≈ 2.86 µM), an MIC90 (Citrobacter diversus) of 0.06 µg/mL (≈ 0.172 µM) and an MIC90 [13] of 0.03 µg/mL (≈ 0.0858 µM). For the same compound, the MIC90 [14] was 0.125 µg/mL (≈ 0.358 µM), the MIC90 (Prevotella spp) was 0.125 µg/mL (≈ 0.358 µM) and the MIC90 (Listeria monocytogenes) was 0.125 µg/mL (≈ 0.358 µM). It also gave an MIC90 (Klebsiella oxytoca) of 0.125 µg/mL (≈ 0.358 µM), an MIC90 [15] of 0.125 µg/mL (≈ 0.358 µM) and an MIC90 (Klebsiella pneumoniae) of 0.125 µg/mL (≈ 0.358 µM). It also gave an MIC90 (Salmonella/Shigella) of 0.125 µg/mL (≈ 0.358 µM), an MIC90 (Enterobacter aerogenes) of 0.5 µg/mL (≈ 1.43 µM) and an MIC90 [16] of 0.03 µg/mL (≈ 0.0858 µM). The MIC90 [17] was 0.5 µg/mL (≈ 1.43 µM).

In the case of `CCC(CC)C(=O)OCOC(=O)C1=C(S[C@H]2CC[S@@+]([O-])C2)S[C@@H]2[C@@H]([C@@H](C)O)C(=O)N12` [Compound 1, (2-Ethyl-1-oxobutoxy)methyl (5R,6S)-6-[(1R)-1-hydroxyethyl]-7-oxo-3-[[(1R,3S)-tetrahydro-1-oxido-3-thienyl]thio]-4-thia-1-azabicyclo[3.2.0]hept-2-ene-2-carboxylate], the PD50 (K. pneumoniae 6485) is reported as 88.6 mg/kg and 63.4 mg/kg, the Km [18] is reported as 91 µM and the PD50 (S. pneumoniae 1095 [19]) is reported as 16.4 mg/kg and 12.5 mg/kg and 9.5 mg/kg. The PD50 (S. pneumoniae 1095 [20]) was 12.5 mg/kg and 6.3 mg/kg, the “conversion to sulopenem (in words)” value [21] was “fully converted to sulopenem” and the “intrinsic clearance in human intestinal juice (in words)” value was “relatively low intrinsic clearance”. For the same compound, the “HIJ Clint (avg)” value (human, pH 7.4) was 0.07 mL/min, the “PPE half-life (in words)” value [22] was “relatively long PPE half-life” and the half-life at 50 µM ([23]; pH 7.4, ku-zyme Lot 1) was 11.7 ± 3.8 min. For the same compound, the half-life at 50 µM ([23]; pH 7.4, ku-zyme lot 2) was 17.9 min, the solubility (Equilibrium solubility) was 1210 µg/mL (≈ 2530 µM) and the ED50 (H. influenzae BLNAR) was 4.5 mg/kg. The ED50 (H. influenzae BLNAR; Haemophilus influenzae, in Meriones unguiculatus, po) was 8.7 mg/kg.
